In this data set the target is T1, CYP1A1 (Mus musculus, UniProt P00184).
T1 sequence (P00184 whole entry): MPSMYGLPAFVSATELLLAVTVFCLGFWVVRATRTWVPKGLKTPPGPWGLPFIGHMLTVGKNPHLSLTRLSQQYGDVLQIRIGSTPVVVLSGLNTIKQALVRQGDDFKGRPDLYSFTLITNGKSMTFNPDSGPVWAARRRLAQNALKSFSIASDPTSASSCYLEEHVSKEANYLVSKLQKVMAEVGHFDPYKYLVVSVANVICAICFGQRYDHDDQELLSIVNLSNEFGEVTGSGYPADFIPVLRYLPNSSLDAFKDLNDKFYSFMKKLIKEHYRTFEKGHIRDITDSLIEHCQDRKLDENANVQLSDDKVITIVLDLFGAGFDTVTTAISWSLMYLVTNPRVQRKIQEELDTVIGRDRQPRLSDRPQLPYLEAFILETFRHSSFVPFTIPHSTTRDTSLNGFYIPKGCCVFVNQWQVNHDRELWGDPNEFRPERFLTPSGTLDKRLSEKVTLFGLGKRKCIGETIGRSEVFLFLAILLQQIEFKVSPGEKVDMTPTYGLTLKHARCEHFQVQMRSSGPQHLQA
Briefly: Inhibition of CYP1A1 in mouse RAW264.7 cells at 500 nM incubated for 12 hrs by EROD assay relative to control. In kind it is cell-based.

Usually inhibition stands for the percentage by which the read-out fell short of the control. A higher inhibition goes with strong suppression.

Regarding `C#Cc1ccccc1/C=C/C(=O)c1ccc2c(c1)n(C)c(=O)n2C`, the inhibition at 12 h, 0.5 µM was under 10%.

For the origin of these results see ChEMBL document CHEMBL6178019, “Discovery of CYP1A1 Inhibitors for Host-Directed Therapy against Sepsis” (J Med Chem, 2025).
